Experimental data taken from PMC7255801, “Disease-associated mutations in the human TRPM3 render the channel overactive via two distinct mechanisms” (eLife, 2020).

Biological target: T1, hTRPM3_1325 V990M (Homo sapiens, UniProt Q9HCF6, V1015M)
T1 construct: expressed in transfected cells; host or cells: Xenopus laevis oocytes (cRNA injection)
T1 sequence (Q9HCF6 1-1325 isoform Q9HCF6-10 V990M): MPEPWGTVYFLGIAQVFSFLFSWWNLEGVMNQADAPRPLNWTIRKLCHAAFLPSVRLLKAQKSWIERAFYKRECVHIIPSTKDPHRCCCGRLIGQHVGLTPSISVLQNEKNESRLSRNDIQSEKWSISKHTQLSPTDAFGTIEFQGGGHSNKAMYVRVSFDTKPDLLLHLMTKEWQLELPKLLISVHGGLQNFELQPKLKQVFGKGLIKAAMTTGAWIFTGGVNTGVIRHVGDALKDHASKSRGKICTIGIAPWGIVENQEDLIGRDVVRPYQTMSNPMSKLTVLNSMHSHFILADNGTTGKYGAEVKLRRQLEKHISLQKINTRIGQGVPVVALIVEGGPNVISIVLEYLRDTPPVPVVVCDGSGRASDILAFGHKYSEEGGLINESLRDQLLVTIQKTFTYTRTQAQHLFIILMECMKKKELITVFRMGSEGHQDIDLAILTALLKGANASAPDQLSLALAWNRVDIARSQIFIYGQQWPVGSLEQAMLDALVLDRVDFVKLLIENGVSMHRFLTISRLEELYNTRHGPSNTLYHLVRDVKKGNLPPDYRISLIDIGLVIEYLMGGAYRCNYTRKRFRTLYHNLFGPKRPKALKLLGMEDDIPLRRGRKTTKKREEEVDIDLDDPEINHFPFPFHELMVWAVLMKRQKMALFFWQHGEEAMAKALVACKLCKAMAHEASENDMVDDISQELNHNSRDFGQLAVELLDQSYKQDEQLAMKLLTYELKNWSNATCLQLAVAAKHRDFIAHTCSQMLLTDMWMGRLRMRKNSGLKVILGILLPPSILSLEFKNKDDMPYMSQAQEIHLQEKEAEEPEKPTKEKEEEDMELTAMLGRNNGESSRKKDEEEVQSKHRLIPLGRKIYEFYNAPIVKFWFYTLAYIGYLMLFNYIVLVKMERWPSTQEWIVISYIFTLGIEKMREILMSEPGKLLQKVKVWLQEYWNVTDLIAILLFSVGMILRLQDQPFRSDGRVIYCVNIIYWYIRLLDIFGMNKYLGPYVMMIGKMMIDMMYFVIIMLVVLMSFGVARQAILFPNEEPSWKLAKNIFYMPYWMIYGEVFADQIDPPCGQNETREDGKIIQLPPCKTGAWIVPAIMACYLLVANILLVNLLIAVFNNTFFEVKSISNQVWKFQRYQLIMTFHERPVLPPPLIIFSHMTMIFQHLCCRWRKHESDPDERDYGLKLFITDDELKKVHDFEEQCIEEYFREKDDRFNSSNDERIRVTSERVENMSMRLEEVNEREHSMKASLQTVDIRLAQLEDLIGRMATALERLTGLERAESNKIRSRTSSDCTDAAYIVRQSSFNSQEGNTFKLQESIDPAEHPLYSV
Assay: Two electrode voltage clamp in Xenopus oocytes, V990M mutant
Format: cell-based
Conditions: V990M compared with P1090Q, 50 μM, 100 and −100 mV, room temperature (20–22°C)
Method: Xenopus laevis oocytes were prepared as described earlier ([Badheka et al., 2015]). All animal procedures were approved by the Institutional Animal Care and Use Committee at Rutgers New Jersey Medical School. In brief, frogs were anesthetized in 0.25% ethyl 3-aminobenzoate methanesulfonate solution (MS222; Sigma-Aldrich); bags of ovaries were removed surgically from the anesthetized frogs. Individual oocytes were obtained by overnight digestion at 16°C in 0.2–0.3 mg/ml type 1A collagenase (Sigma-Aldrich), dissolved in a solution containing 82.5 mM NaCl, 2 mM KCl, 1 mM MgCl2, and […] HEPES, pH 7.4 (OR2 solution). The next day the collagenase containing solution was discarded and the oocytes were washed multiple times with OR2 solution. […]
Two electrode voltage clamp experiments were performed as described ([Badheka et al., 2015]). In brief, oocytes were placed in extracellular solution (97 mM NaCl, 2 mM KCl, 1 mM MgCl2, and […] HEPES, pH 7.4), and currents were recorded with thin-wall inner filament– containing glass pipettes (World Precision Instruments) filled with 3 M KCl in 1% agarose. Currents were measured with a ramp protocol from −100 to 100 mV once every 0.5 s with a GeneClamp 500B amplifier and analyzed with the pClamp 9.0 software (Molecular Devices). […]

Inhibition of basal current: significantly larger inhibition
SMILES: CCC1(c2ccccc2)C(=O)NCNC1=O [primidone]
